Legend:
WT 129S2 chow-fed mice = test: Study 1: acute food intake and body weight response; type: in vivo, mouse; details: all doses (3, 30, 300 nmol/kg s.c.)
Description: Thirty-two 12 week-old male WT 129S2/SvEv mice (Janvier Elevage, France) were individually housed in food monitoring cages (BioDAQ, New Brunswick, NJ, USA). Mice were housed in a controlled environment maintained at 21 ± 2 °C, under a 12/12 h light–dark cycle (lights off at 10.00 h). They were adapted to the cages and hoppers for 2 weeks before being tested. Mice were fed water and chow diet ad libitum (3.14 kcal/g of food; Kliba, Switzerland, cat# 3436).
Mice were injected subcutaneously (s.c.) at dark onset after a 4 h fast in the light phase with vehicle, 3 nmol/kg, 30 nmol/kg or 300 nmol/kg of cagrilintide.

[1] = tested on: area postrema (AP) neurons of WT and RAMP1/3 KO mice; test: Study 4 cohort 1: cFos positive neurons, AP; type: in vivo, mouse; details: for Predicted (LS) mean diff., AP cFos after square root transformation: second statistical test, Figure 4b
Description: (§1) Mice were group housed in a controlled environment maintained at 21 ± 2 °C, under a 12/12 h light–dark cycle (lights off at 11.00 h). In the first cohort, 25 male WT and 25 male RAMP1/3 KO mice aged between 12 and 20 week-old were fed chow diet and maintained under group housing condition. In the second cohort, 18 male WT, 18 male RAMP1 KO, 18 male RAMP3 KO and 18 male RAMP1/3 KO mice aged between 10 and 15 week-old were fed chow diet and maintained under group housing condition.
For both cohorts, animals were deeply anesthetised 90 min later (pentobarbital 100 mg/kg, i.p) and transcardially perfused with cold 0.1 M of phosphate buffer (PB) for 1.5 min followed by 4% of paraformaldehyde (PFA) in PB for 2.5 min. Brains were removed and postfixed overnight in 4% of PFA and cryoprotected in 20% of sucrose-PB for 24 h. Brains were frozen in hexane on dry ice and stored at −80 °C until sectioning. Stereological brain sampling of the areas of interest was performed and brain were serially cut on a cryostat (Leica Biosystems, Germany, cat# CM3050S), mounted on Superfrost Plus slides (Thermo Fisher Scientific, Reinach, Switzerland), and cryoprotected in 50% of PB, 30% of ethylene glycol, 20% of glycerol, and subsequently stored at −20 °C.
Blocking of the mouse brain sections was performed with 0.4% Triton–4% normal goat serum in PBS for 2 h at room temperature. AP/NTS and LPBN sections were incubated at 4 °C for 48 h with rabbit anti-Fos antibody (1:500, Cell signalling technology, Switzerland, Cat# 2250, RRID: AB_2247211), and then after PBS washes, incubated with goat anti-rabbit Alexa Fluor CY3 (1:200, LuBio Science GmbH, Switzerland for Jackson Immunoresearch, Cat# 111-165-144) or alexa fluor 488 for 2 h at room temperature. After thorough washing in PBS, the sections were counterstained with DAPI, mounted immediately and coverslipped with Vectashield antifade Mounting Medium (Vectorlabs, Burlingame, USA, cat# H-1400).[40]
Photomicrographs of all sections containing AP, NTS and LPBN were taken at 20× magnification using Zeiss Axio Scan.Z1 slidescanner (Center for Microscopy and Image Analysis UZH, Zeiss, Germany). All images for each study were acquired using the same exposure time. Scanned images were imported into QuPath (QuPath 0.5.0) for quantification. Three to four sections were counted and averaged per area of interest. A polygon tool was used manually to determine the boundary of the region of interest of the brain section. A cell detection tool was used to detect every cell in the section by using a built-in cell segmentation algorithm. The cell detection tool was used on the DAPI channel to make sure that only a cell was recognised and not the background or artefact by system. A detection classifier was created by using the create detection classifier function. The numbers of positive counted DAPI cells containing a cFos signal were automatically counted within the region. The experimental group was blinded to the experimenter during the analysis.

[2] = tested on: WT and RAMP1/3 KO high fat diet fed mice; test: Study 3: 3-week treatment, food intake and body weight; type: in vivo, mouse
Description: Male mice were housed in a controlled environment maintained at 21 ± 2 °C, under a 12/12 h light–dark cycle (lights off at 11.00 h). Mice had ad libitum access to standard chow (3.14 kcal/g of food; Kliba, Switzerland, cat# 3436) and water, until 3–4 weeks old. Twenty-four WT and twenty-four RAMP 1/3 KO male mice were fed a 60% fat HFD (5.24 kcal/g of food; SSNIFF Spezialdiäten GmbH, Germany, cat# EF D12452) provided ad libitum for 18 weeks. Then mice were fed to a 45% fat HFD (4.73 kcal/g of food; SSNIFF Spezialdiäten GmbH, Germany, cat# EF D12451) provided ad libitum for 6 weeks until the end of the study. The mice were group housed (3–4 mice per cage) until 1 week before the 21-day treatment period. Each cage was equipped with a red plastic house, tissue paper, nest-building material and wood shavings. Prior to the 21-day treatment, mice were injected with vehicle for three days to acclimate to the daily subcutaneous injections and reduce stress associated with the injections.
(§2) Mice were s.c. injected once a day for 3 weeks 1 h before dark onset between 9.00 and 10.00 h. Prior to injection, daily body weight and food intake were measured manually. On the day of sacrifice, mice were anesthetised with pentobarbital (100 mg/kg, i.p., Cantonal Pharmacy of Zurich, Switzerland) 24 h after receiving the last dose of peptide.

[3] = tested on: WT and RAMP1/3 KO high fat diet fed mice; test: Study 3: body composition by EchoMRI; type: in vivo, mouse; details: 3 nmol/kg/d s.c., 3 weeks
Description: as §2
Brains were harvested, snap frozen on dry ice and kept at −80 °C until mRNA extraction for next-generation sequencing (NGS) analysis. Blood samples were collected from the right ventricle of the heart during the sacrifice in 1 mL EDTA-coated tubes containing dipeptidyl peptidase-4 inhibitor (10 μL/mL blood; Sigma Aldrich, Switzerland, cat# DPP4-010) and protease inhibitor (30 μL/mL blood; Sigma Aldrich, Switzerland, cat# P2714). After centrifugation, plasma was kept at −80 °C. The mice were stored at −20 °C until body composition analysis was performed.
Lean and fat mass were measured post-mortem using EchoMRI (EchoMRI LLC, USA) at the Zurich Integrative Rodent Physiology (University of Zurich). Calibrations and measurements were performed according to manufacturer's instructions. Two measurements were performed and averaged per mouse. Fat mass and lean mass values are expressed as percent of body weight.

rCTR(a) = tested on: rCTR(a); design: method as in PMID 34288673; details: pEC50 = -LogEC50; cited from earlier work
[4] = tested on: AP neurons of WT, RAMP1 KO, RAMP3 KO and RAMP1/3 KO mice; test: Study 4 cohort 2: cFos positive neurons, AP; type: in vivo, mouse; details: 3 nmol/kg i.p.
Description: as §1
Cohort 2: WT, RAMP1 KO, RAMP3 KO and RAMP1/3 KO were injected i.p. at dark onset after a 12 h fast in the light phase with vehicle or cagrilintide (3 nmol/kg) (n = 6/group).
(§3) For both cohorts, animals were deeply anesthetised 90 min later (pentobarbital 100 mg/kg, i.p) and transcardially perfused with cold 0.1 M of phosphate buffer (PB) for 1.5 min followed by 4% of paraformaldehyde (PFA) in PB for 2.5 min. […]
(§4) Photomicrographs of all sections containing AP, NTS and LPBN were taken at 20× magnification using Zeiss Axio Scan.Z1 slidescanner (Center for Microscopy and Image Analysis UZH, Zeiss, Germany). […] Scanned images were imported into QuPath (QuPath 0.5.0) for quantification. Three to four sections were counted and averaged per area of interest. […] The numbers of positive counted DAPI cells containing a cFos signal were automatically counted within the region. […]

rAMYR3 = tested on: rAMYR3; design: method as in PMID 34288673; details: pEC50 = -LogEC50; cited from earlier work
[5] = tested on: LPBN neurons of WT and RAMP1/3 KO mice; test: Study 4 cohort 1: cFos positive neurons, LPBN; type: in vivo, mouse; details: both 3 nmol/kg i.p., 90 min
Description: as §1
as §3, with “min. Brains were removed and postfixed overnight in 4% of PFA and cryoprotected in 20% of sucrose-PB for 24 h. Brains were frozen in hexane on dry ice and stored at −80 °C until sectioning.” for “min.”
as §4

CC[C@H](C)[C@H](NC(=O)[C@@H]1CCCN1C(=O)CNC(=O)[C@H](Cc1ccccc1)NC(=O)[C@H](CC(N)=O)NC(=O)[C@H](CC(N)=O)NC(=O)[C@H](CO)NC(=O)[C@H](CO)NC(=O)[C@H](Cc1c[nH]cn1)NC(=O)[C@H](CCCNC(=N)N)NC(=O)[C@H](CC(C)C)NC(=O)[C@H](Cc1ccccc1)NC(=O)[C@H](CCC(=O)O)NC(=O)[C@H](C)NC(=O)[C@H](CC(C)C)NC(=O)[C@H](CCCNC(=N)N)NC(=O)[C@H](CCC(N)=O)NC(=O)[C@@H](NC(=O)[C@H](C)NC(=O)[C@@H]1CSSC[C@H](NC(=O)[C@H](CCCCN)NC(=O)CC[C@H](NC(=O)CCCCCCCCCCCCCCCCCCC(=O)O)C(=O)O)C(=O)N[C@@H](CC(N)=O)C(=O)N[C@@H]([C@@H](C)O)C(=O)N[C@@H](C)C(=O)N[C@@H]([C@@H](C)O)C(=O)N1)[C@@H](C)O)C(=O)N[C@@H](CC(C)C)C(=O)N1CCC[C@H]1C(=O)N1CCC[C@H]1C(=O)N[C@H](C(=O)N[C@@H](CC(N)=O)C(=O)N[C@H](C(=O)NCC(=O)N[C@@H](CO)C(=O)N[C@@H](CC(N)=O)C(=O)N[C@H](C(=O)N1CCC[C@H]1C(N)=O)[C@@H](C)O)C(C)C)[C@@H](C)O [Cagrilintide]
acute effect on eating (WT 129S2 chow-fed mice): significantly reduced eating | less cFos activated AP neurons in RAMP1/3 KO vs WT mice ([1]; 3 nmol/kg i.p., cohort 1, n = 5–6/group): 57% | Predicted (LS) mean diff., AP cFos after square root transformation ([1]; Cagrilintide (3 nmol/kg), WT vs. RAMP 1/3 KO): 2.537 | Predicted (LS) mean diff., AP cFos after square root transformation ([1]; RAMP 1/3 KO, Vehicle vs. Cagrilintide (3 nmol/kg), Tukey): -3.878 | Predicted (LS) mean diff., AP cFos after square root transformation ([1]; WT, Vehicle vs. Cagrilintide (3 nmol/kg), Tukey): -6.224 | cFos activated neurons in the AP, cagrilintide compared to sCT ([1]; both 3 nmol/kg i.p., WT and KO mice, 90 min): −75% | effect on body weight ([2]; RAMP1/3 KO mice, 3 nmol/kg/d s.c., 21 days): no effect | acute anorectic effect on day 1 ([2]; RAMP1/3 KO mice, cagrilintide 3, sCT 150 nmol/kg s.c.): no effect | day 21 body weight loss vs WT Veh ([2]; WT mice, 3 nmol/kg/d s.c.): −66% | Body weight change after 3-week treatment ([2]; WT mice, cagrilintide 3, sCT 150 nmol/kg s.c. SID, mean ± SEM, n = 8/group): -3.4 ± 0.51 g | Food intake on Day 1 ([2]; WT mice, cagrilintide 3, sCT 150 nmol/kg s.c., mean ± SEM, n = 7–8/group): 1.2 ± 0.1 g | relative fat mass, RAMP1/3 KO compared to WT-treated counterparts [3]: +32% | relative lean mass, RAMP1/3 KO compared to WT-treated counterparts [3]: −22% | Functional assay pEC50 [95% CI], cAMP, rCTR(a) (rCTR(a)): 9.54 [n.d] M | decrease of activated AP neurons in RAMP1/3 KO compared to WT-injected mice [4]: 40% | Functional assay pEC50 [95% CI], cAMP, rAMYR3 (rAMYR3): 9.46 [0.03] M | cFos activated neurons in the LPBN, cagrilintide compared to sCT [5]: −36%

From paper PMC12270663, “Cagrilintide lowers bodyweight through brain amylin receptors 1 and 3” (eBioMedicine, 2025)
